Measured values: publication PMC7617869, “Molecular glues that inhibit deubiquitylase activity and inflammatory signaling” (Nature Structural & Molecular Biology, 2025)
pIC50: −log10 of the molar value. Values joined by “and” are separate entries in the source; they are usually repeats but may differ in a detail not shown here. Identical values can stand only once.

How the values were obtained:
BRISC BRCC36 L169R = BRISC BRCC36 L169R (Homo sapiens, UniProt P46736+Q15018+Q9NXR7, L169R); assay: BRISC mutant IQF assay: BRCC36 L169R; format: biochemical
Experimental: (§1) IQF assays were performed in DUB reaction buffer containing 50 mM HEPES–NaOH pH 7.0, 100 mM NaCl, 0.1 mg ml^−1 BSA, 1 mM DTT and 0.03% v/v Brij-35. […] The final concentration of BRISC WT, all BRISC mutants, HsBRISCΔLoop, MmBRISC and DrBRISCΔNΔC was 1 nM. Other enzymes were tested at the following concentrations: 5 nM ARISC (FL), 10 nM CfBRISCΔNΔC, 250 nM AMSH* (ref. [43]), 500 nM USP2 and 1 μM trypsin (Sigma, 9002-07-7). For Michaelis–Menten experiments, 1 nM BRISC with 0–1 μM IQF K63-linked diubiquitin substrate was used. Michaelis–Menten analyses and Lineweaver–Burk plots were calculated using GraphPad Prism (version 9.0).
(§2) To assess enzymatic activity, BRISC complexes were diluted to concentrations between 1 nM and 50 nM. […] Then, 20-μl enzyme reactions were carried out in 384-well black flat-bottom low-flange plates (Corning, 35373). DUB activity was measured using IQF K63-linked diubiquitin (LifeSensors, DU6303) at 50 nM. Cleaved diubiquitin was monitored by measuring fluorescence intensity (excitation, 544 nm; emission, 575 nm; dichroic mirror, 560 nm). Fluorescence intensity was measured every minute for 30 min at 30 °C. Fluorescence intensity units were plotted against time to generate a linear reaction progress curve, where the initial velocity (V0) corresponds to the gradient of the curve (typically achieved within 15 min). IC50 values were calculated using the GraphPad Prism (version 9.0) built-in dose–response equation for inhibitor concentration versus response (variable slope).

BRISC BRCC45 F140A = BRISC BRCC45 F140A (Homo sapiens, UniProt P46736+Q15018+Q9NXR7, F140A); assay: BRISC mutant IQF assay: BRCC45 F140A; format: biochemical
Experimental: as §1, §2

CfBRISCΔNΔC = CfBRISCΔNΔC IQF DUB activity assay; format: biochemical, ant (Camponotus floridanus); settings: for Normalised V0: CfBRISCΔNΔC
Experimental: as §1, §2

HsBRISCΔLoop (Δ184–208) = HsBRISCΔLoop (Δ184–208) (Homo sapiens, UniProt P46736+Q15018+Q9NXR7); assay: HsBRISCΔLoop IQF DUB activity assay; format: biochemical
Experimental: as §1, §2

BRISC Abraxas2 T140A = BRISC Abraxas2 T140A (Homo sapiens, UniProt P46736+Q15018+Q9NXR7, T140A); assay: BRISC mutant IQF assay: Abraxas2 T140A; format: biochemical
Experimental: as §1, §2

[1] = FX-171-C 0.0035 μM, read-out: Normalised V0
[2] = FX-171-C 0.035 μM, read-out: Normalised V0
[3] = FX-171-C 0.35 μM, read-out: Normalised V0
[4] = FX-171-C 3.1 μM, read-out: Normalised V0
[5] = FX-171-C 25 μM, read-out: Normalised V0

## O=C(NC1C2CNCC21)c1nn(C(=O)c2c(Cl)cccc2Cl)cc1NC(=O)c1c(Cl)cccc1Cl (stereo not shown) [FX-171-C]
BRISC BRCC36 L169R
  pIC50: 4.12
  reduction of inhibition over wild-type complex: > 100 fold
BRISC BRCC36 L169R; [1]
  remaining activity at 0.0035 µM: 98.8%
BRISC BRCC36 L169R; [2]
  remaining activity at 0.035 µM: 96.8%
BRISC BRCC36 L169R; [3]
  remaining activity at 0.35 µM: 93.7%
BRISC BRCC36 L169R; [4]
  remaining activity at 3.1 µM: 89.5%
BRISC BRCC36 L169R; [5]
  remaining activity at 25 µM: 88%
BRISC BRCC45 F140A
  pIC50: 5.37
  inhibitor sensitivity vs BRISC WT: reduced sensitivity to inhibition
BRISC BRCC45 F140A; [1]
  remaining activity at 0.0035 µM: 96%
BRISC BRCC45 F140A; [2]
  remaining activity at 0.035 µM: 92.5%
BRISC BRCC45 F140A; [3]
  remaining activity at 0.35 µM: 89.9%
BRISC BRCC45 F140A; [4]
  remaining activity at 3.1 µM: 51.2%
BRISC BRCC45 F140A; FX-171-C 6.25 μM, read-out: Normalised V0
  remaining activity at 6.25 µM: 43.9%
BRISC BRCC45 F140A; FX-171-C 12.5 μM, read-out: Normalised V0
  remaining activity at 12.5 µM: 26.9%
BRISC BRCC45 F140A; [5]
  remaining activity at 25 µM: 14.2%
BRISC BRCC45 F140A; FX-171-C 100 μM, read-out: Normalised V0
  remaining activity at 100 µM: 5.06%
CfBRISCΔNΔC
  inhibition of ant BRISC: no inhibition
CfBRISCΔNΔC; FX-171-C 0.013 μM
  Normalised V0: 0.8962 and 0.9603 and 0.9451 and 1.01 and 0.9065 and 0.9614
CfBRISCΔNΔC; FX-171-C 0.02 μM
  Normalised V0: 0.8823 and 0.9398 and 0.9125
CfBRISCΔNΔC; FX-171-C 0.0399999 μM
  Normalised V0: 0.8374 and 1.085 and 0.922
CfBRISCΔNΔC; FX-171-C 0.0599997 μM
  Normalised V0: 0.96 and 0.9545 and 0.8432
CfBRISCΔNΔC; FX-171-C 0.0799994 μM
  Normalised V0: 0.96 and 1.021 and 0.8317
CfBRISCΔNΔC; FX-171-C 0.119998 μM
  Normalised V0: 0.912 and 0.9545 and 0.6902
CfBRISCΔNΔC; FX-171-C 0.199996 μM
  Normalised V0: 0.9393 and 1.029 and 0.809
CfBRISCΔNΔC; FX-171-C 0.499975 μM
  Normalised V0: 0.8932 and 0.9706 and 1.16
CfBRISCΔNΔC; FX-171-C 0.799937 μM
  Normalised V0: 0.8483 and 0.9187 and 0.8448
CfBRISCΔNΔC; FX-171-C 1.25984 μM
  Normalised V0: 0.9211 and 1.122 and 1.015
CfBRISCΔNΔC; FX-171-C 1.9996 μM
  Normalised V0: 0.9132 and 0.9123 and 0.84
CfBRISCΔNΔC; FX-171-C 3.159 μM
  Normalised V0: 0.9417 and 1.133 and 0.9365
CfBRISCΔNΔC; FX-171-C 5.19739 μM
  Normalised V0: 0.9697 and 1.085 and 0.6282
CfBRISCΔNΔC; FX-171-C 7.99364 μM
  Normalised V0: 0.932 and 1.064 and 1.2693
CfBRISCΔNΔC; FX-171-C 12.7839 μM
  Normalised V0: 1.03 and 1.045 and 0.7909
CfBRISCΔNΔC; FX-171-C 19.96 μM
  Normalised V0: 1.048 and 1.129 and 1.039
CfBRISCΔNΔC; FX-171-C 31.4999 μM
  Normalised V0: 0.9199 and 1.137 and 0.9151
CfBRISCΔNΔC; FX-171-C 50.147 μM
  Normalised V0: 0.8823 and 1.1 and 0.9082
CfBRISCΔNΔC; FX-171-C 79.7601 μM
  Normalised V0: 0.9478 and 0.9802 and 1.294
CfBRISCΔNΔC; FX-171-C 125.99 μM
  Normalised V0: 0.8064 and 1.008 and 0.9331
CfBRISCΔNΔC; FX-171-C 199.922 μM
  Normalised V0: 1.048 and 0.9667 and 0.9357
HsBRISCΔLoop (Δ184–208); HsBRISCΔLoop, FX-171-C 0.013 μM, read-out: Normalised V0
  remaining activity at 0.013 µM: 87.6%
HsBRISCΔLoop (Δ184–208); HsBRISCΔLoop, FX-171-C 0.02 μM, read-out: Normalised V0
  remaining activity at 0.02 µM: 103%
HsBRISCΔLoop (Δ184–208); HsBRISCΔLoop, FX-171-C 0.0399999 μM, read-out: Normalised V0
  remaining activity at 0.0399999 µM: 90.4%
HsBRISCΔLoop (Δ184–208); HsBRISCΔLoop, FX-171-C 0.0599997 μM, read-out: Normalised V0
  remaining activity at 0.0599997 µM: 102%
HsBRISCΔLoop (Δ184–208); HsBRISCΔLoop, FX-171-C 0.0799994 μM, read-out: Normalised V0
  remaining activity at 0.0799994 µM: 93.6%
HsBRISCΔLoop (Δ184–208); HsBRISCΔLoop, FX-171-C 0.119998 μM, read-out: Normalised V0
  remaining activity at 0.119998 µM: 102%
HsBRISCΔLoop (Δ184–208); HsBRISCΔLoop, FX-171-C 0.199996 μM, read-out: Normalised V0
  remaining activity at 0.199996 µM: 84.1%
HsBRISCΔLoop (Δ184–208); HsBRISCΔLoop, FX-171-C 0.499975 μM, read-out: Normalised V0
  remaining activity at 0.499975 µM: 99%
HsBRISCΔLoop (Δ184–208); HsBRISCΔLoop, FX-171-C 0.799937 μM, read-out: Normalised V0
  remaining activity at 0.799937 µM: 98.4%
HsBRISCΔLoop (Δ184–208); HsBRISCΔLoop, FX-171-C 1.25984 μM, read-out: Normalised V0
  remaining activity at 1.25984 µM: 86.2%
HsBRISCΔLoop (Δ184–208); HsBRISCΔLoop, FX-171-C 1.9996 μM, read-out: Normalised V0
  remaining activity at 1.9996 µM: 93.3%
HsBRISCΔLoop (Δ184–208); HsBRISCΔLoop, FX-171-C 3.159 μM, read-out: Normalised V0
  remaining activity at 3.159 µM: 82%
HsBRISCΔLoop (Δ184–208); HsBRISCΔLoop, FX-171-C 5.19739 μM, read-out: Normalised V0
  remaining activity at 5.19739 µM: 89%
HsBRISCΔLoop (Δ184–208); HsBRISCΔLoop, FX-171-C 7.99364 μM, read-out: Normalised V0
  remaining activity at 7.99364 µM: 69.7%
HsBRISCΔLoop (Δ184–208); HsBRISCΔLoop, FX-171-C 12.7839 μM, read-out: Normalised V0
  remaining activity at 12.7839 µM: 65.1%
HsBRISCΔLoop (Δ184–208); HsBRISCΔLoop, FX-171-C 19.96 μM, read-out: Normalised V0
  remaining activity at 19.96 µM: 50.7%
HsBRISCΔLoop (Δ184–208); HsBRISCΔLoop, FX-171-C 31.4999 μM, read-out: Normalised V0
  remaining activity at 31.4999 µM: 45.4%
HsBRISCΔLoop (Δ184–208); HsBRISCΔLoop, FX-171-C 50.147 μM, read-out: Normalised V0
  remaining activity at 50.147 µM: 24.3%
HsBRISCΔLoop (Δ184–208); HsBRISCΔLoop, FX-171-C 79.7601 μM, read-out: Normalised V0
  remaining activity at 79.7601 µM: 18.2%
HsBRISCΔLoop (Δ184–208); vs human BRISC
  change of inhibitor sensitivity on deletion of BRCC36 loop (184–208): reduced inhibitor sensitivity approximately tenfold
BRISC Abraxas2 T140A; Abraxas 2 T140A
  pIC50: 5.30
  inhibitor sensitivity vs BRISC WT: IC50 tenfold higher than BRISC WT
BRISC Abraxas2 T140A; Abraxas2 T140A, FX-171-C 0.0035 μM, read-out: Normalised V0
  remaining activity at 0.0035 µM: 89.1%
BRISC Abraxas2 T140A; Abraxas2 T140A, FX-171-C 0.35 μM, read-out: Normalised V0
  remaining activity at 0.35 µM: 99.5%
BRISC Abraxas2 T140A; Abraxas2 T140A, FX-171-C 3.1 μM, read-out: Normalised V0
  remaining activity at 3.1 µM: 53.4%
